Data: publication PMC7904915, “Discovery of exolytic heparinases and their catalytic mechanism and potential application” (Nature Communications, 2021)

What was measured:
Type in all cases: biochemical
BIexoHep = molecular target: T1, BIexoHep (Bacteroides intestinalis, UniProt B3C5J6); experiment: tetrasaccharide digestion, 2-AB labelling, anion-exchange HPLC; conditions: exolytic beta-elimination; 5 pmol substrate
T1 construct: gene BACINT_00178; pET-30a(+), His-purified from E. coli BL21(DE3); crystal residues 24-864, monomer, two Ca2+
T1 sequence (B3C5J6 24-868): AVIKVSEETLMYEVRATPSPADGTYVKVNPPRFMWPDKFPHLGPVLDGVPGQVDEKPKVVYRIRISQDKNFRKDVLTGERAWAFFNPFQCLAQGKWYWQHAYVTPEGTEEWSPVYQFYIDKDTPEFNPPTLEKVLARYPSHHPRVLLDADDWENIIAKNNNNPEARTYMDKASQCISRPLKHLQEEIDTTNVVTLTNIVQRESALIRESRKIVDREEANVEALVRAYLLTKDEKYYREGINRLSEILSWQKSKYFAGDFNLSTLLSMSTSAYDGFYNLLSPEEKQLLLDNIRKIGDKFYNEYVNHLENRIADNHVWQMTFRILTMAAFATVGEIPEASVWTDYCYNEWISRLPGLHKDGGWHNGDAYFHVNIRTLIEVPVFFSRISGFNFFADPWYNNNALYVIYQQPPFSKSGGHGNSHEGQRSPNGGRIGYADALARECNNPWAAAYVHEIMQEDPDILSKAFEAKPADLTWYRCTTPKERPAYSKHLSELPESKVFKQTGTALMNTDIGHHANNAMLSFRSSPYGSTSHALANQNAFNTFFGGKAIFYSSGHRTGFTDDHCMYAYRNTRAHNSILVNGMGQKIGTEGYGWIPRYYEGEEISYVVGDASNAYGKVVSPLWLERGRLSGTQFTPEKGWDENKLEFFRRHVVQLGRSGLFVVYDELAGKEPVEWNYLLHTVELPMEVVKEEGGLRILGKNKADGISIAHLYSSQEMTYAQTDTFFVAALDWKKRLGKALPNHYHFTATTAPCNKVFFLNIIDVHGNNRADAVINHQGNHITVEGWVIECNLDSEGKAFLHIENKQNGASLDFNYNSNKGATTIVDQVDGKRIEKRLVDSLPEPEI

BFexoHep = molecular target: T2, BFexoHep (Bacteroides finegoldii, UniProt C9L025); experiment: digestion, anion-exchange HPLC at […] nm; conditions: […] μg fondaparinux; cleaved to ΔUA2S([…]-4)GlcNS6S(OCH3) only
T2 construct: synthetic gene, expressed in E. coli BL21(DE3) and purified as BIexoHep
T2 sequence (C9L025 24-874): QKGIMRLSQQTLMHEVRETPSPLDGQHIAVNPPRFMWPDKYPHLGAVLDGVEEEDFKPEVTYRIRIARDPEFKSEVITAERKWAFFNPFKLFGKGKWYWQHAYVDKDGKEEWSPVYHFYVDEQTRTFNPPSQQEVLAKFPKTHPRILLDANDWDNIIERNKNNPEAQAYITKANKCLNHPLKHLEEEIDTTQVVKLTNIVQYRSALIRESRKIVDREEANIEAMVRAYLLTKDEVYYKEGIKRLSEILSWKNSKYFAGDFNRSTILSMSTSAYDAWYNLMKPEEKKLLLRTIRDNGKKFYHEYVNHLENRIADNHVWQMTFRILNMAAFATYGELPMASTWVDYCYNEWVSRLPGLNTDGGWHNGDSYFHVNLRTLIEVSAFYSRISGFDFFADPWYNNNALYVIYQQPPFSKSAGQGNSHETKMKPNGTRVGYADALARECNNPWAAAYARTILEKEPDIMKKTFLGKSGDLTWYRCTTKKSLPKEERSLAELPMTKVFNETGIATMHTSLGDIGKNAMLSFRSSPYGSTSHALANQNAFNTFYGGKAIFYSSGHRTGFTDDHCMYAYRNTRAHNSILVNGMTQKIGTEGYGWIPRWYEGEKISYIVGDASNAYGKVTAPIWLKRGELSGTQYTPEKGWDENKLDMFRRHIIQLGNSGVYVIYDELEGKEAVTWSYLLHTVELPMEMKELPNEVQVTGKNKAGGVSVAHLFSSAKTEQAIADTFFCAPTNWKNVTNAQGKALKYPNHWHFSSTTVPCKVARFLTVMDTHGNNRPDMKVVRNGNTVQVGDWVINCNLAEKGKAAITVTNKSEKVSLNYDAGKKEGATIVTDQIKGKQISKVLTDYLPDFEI

BCexoHep = molecular target: T3, BCexoHep (Bacteroides cellulosilyticus, UniProt A0A0P0GDH6); experiment: digestion, anion-exchange HPLC at […] nm; conditions: 5 μg fondaparinux; cleaved to ΔUA2S(1-4)GlcNS6S(OCH3) only
T3 construct: gene hepB; synthetic gene, expressed in E. coli BL21(DE3) and purified as BIexoHep
T3 sequence (A0A0P0GDH6 18-868): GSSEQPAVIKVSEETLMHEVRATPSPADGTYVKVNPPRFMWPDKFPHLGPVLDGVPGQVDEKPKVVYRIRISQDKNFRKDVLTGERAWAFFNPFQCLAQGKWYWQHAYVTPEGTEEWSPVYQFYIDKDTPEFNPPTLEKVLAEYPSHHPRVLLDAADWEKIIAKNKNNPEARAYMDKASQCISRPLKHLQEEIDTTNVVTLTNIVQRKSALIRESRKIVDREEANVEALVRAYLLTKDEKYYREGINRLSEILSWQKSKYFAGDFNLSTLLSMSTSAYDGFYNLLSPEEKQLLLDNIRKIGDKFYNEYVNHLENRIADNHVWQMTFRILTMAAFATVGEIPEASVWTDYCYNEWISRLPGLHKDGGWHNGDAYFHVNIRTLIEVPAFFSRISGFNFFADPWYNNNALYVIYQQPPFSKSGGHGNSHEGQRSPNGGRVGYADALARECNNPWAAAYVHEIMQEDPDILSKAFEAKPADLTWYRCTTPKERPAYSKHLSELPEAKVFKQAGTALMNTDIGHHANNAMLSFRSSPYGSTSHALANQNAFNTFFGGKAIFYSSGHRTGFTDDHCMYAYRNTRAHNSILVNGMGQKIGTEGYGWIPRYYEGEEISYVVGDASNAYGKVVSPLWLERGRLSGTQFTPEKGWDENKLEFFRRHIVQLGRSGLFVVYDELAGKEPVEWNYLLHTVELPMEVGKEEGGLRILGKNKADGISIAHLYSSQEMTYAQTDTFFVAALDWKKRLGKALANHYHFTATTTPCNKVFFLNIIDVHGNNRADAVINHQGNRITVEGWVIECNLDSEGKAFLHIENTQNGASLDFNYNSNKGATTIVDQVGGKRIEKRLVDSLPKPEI

BTexoHep = molecular target: T4, BTexoHep (Bacteroides thetaiotaomicron, UniProt Q89YS9); experiment: digestion, anion-exchange HPLC at […] nm; conditions: 5 μg fondaparinux; cleaved to ΔUA2S(1-4)GlcNS6S(OCH3) only
T4 construct: gene BT_4652; synthetic gene, expressed in E. coli BL21(DE3) and purified as BIexoHep
T4 sequence (Q89YS9 22-872): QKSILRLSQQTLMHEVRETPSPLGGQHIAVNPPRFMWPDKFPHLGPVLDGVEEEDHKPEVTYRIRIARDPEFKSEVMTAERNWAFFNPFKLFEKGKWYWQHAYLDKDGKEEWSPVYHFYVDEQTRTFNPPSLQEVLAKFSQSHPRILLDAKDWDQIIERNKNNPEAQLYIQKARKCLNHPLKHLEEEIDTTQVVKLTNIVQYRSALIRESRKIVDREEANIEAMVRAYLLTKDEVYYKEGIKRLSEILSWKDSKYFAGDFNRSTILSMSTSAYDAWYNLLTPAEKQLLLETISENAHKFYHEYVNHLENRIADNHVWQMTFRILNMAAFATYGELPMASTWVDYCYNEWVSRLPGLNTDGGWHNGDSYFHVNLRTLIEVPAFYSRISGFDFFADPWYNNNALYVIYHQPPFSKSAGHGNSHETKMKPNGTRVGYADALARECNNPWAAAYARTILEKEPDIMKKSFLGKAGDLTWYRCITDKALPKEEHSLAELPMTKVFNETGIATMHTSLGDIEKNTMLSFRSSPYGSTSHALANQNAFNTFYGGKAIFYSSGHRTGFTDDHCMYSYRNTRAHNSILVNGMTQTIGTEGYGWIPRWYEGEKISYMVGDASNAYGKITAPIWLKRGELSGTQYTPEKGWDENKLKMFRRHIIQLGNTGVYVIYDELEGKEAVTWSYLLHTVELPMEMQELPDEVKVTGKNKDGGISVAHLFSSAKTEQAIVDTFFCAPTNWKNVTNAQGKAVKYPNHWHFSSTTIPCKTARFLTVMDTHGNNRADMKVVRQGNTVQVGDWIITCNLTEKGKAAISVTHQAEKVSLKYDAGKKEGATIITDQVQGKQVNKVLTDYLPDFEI

Compound	tetrasaccharide digestion, 2-AB labelling, anion-exchange HPLC (BIexoHep)	digestion, anion-exchange HPLC at 232 nm (BFexoHep)	digestion, anion-exchange HPLC at 232 nm (BCexoHep)	digestion, anion-exchange HPLC at 232 nm (BTexoHep)
O=C(O)C1=C[C@H](O)[C@@H](OS(=O)(=O)O)[C@H](O[C@H]2[C@H](O)[C@@H](NS(=O)(=O)O)[C@@H](O[C@H]3[C@H](O)[C@@H](O)[C@H](O[C@H]4[C@H](O)[C@@H](NS(=O)(=O)O)C(O)O[C@@H]4COS(=O)(=O)O)O[C@@H]3C(=O)O)O[C@@H]2COS(=O)(=O)O)O1 (some centres unmarked) [P4-7, ΔUA2S1-4GlcNS6S1-4GlcA1-4GlcNS6S]	all could be almost completely degraded			
O=C(O)C1=C[C@H](O)[C@@H](OS(=O)(=O)O)[C@H](O[C@H]2[C@H](O)[C@@H](NS(=O)(=O)O)[C@@H](O[C@H]3[C@H](O)[C@@H](OS(=O)(=O)O)[C@H](O[C@H]4[C@H](O)[C@@H](NS(=O)(=O)O)C(O)O[C@@H]4COS(=O)(=O)O)O[C@H]3C(=O)O)O[C@@H]2COS(=O)(=O)O)O1 (some centres unmarked) [P4-8, ΔUA2S1-4GlcNS6S1-4IdoA2S1-4GlcNS6S]	this enzyme prefers to digest highly sulfated substrates			
CO[C@H]1O[C@H](COS(=O)(=O)O)[C@@H](O[C@@H]2O[C@@H](C(=O)O)[C@@H](O[C@H]3O[C@H](COS(=O)(=O)O)[C@@H](O[C@@H]4O[C@H](C(=O)O)[C@@H](O[C@H]5O[C@H](COS(=O)(=O)O)[C@@H](O)[C@H](O)[C@H]5NS(=O)(=O)O)[C@H](O)[C@H]4O)[C@H](OS(=O)(=O)O)[C@H]3NS(=O)(=O)O)[C@H](O)[C@H]2OS(=O)(=O)O)[C@H](O)[C@H]1NS(=O)(=O)O [fondaparinux]		all these exoHepases can degrade the fondaparinux	all these exoHepases can degrade the fondaparinux	all these exoHepases can degrade the fondaparinux
